Reference: patent publication US20080312164A1 (priority 2006, published 2008)
Marks after values point to notes of the source that are not given here.

Columns and labels:
[1] = tested on: Du145 cells; assay: Calcein AM cytotoxicity assay, Du145; type: cell-based; conditions: Homo sapiens, DU-145; Du145, Calcein AM, 72 h; read-out: IC50
From the text: (§1) Five serial 1:2 dilutions were made with anhydrous DMSO at 100× the final concentration used in the assay.

[2] = tested on: Du145 cells; assay: Cell Titer-Glo cytotoxicity assay, Du145; type: cell-based; conditions: Homo sapiens, DU-145; Du145, Cell Titer-Glo, 72 h; read-out: IC50
From the text: as §1

[3] = tested on: HCT-116 cells; assay: Calcein AM cytotoxicity assay, HCT-116; type: cell-based; conditions: Homo sapiens; HCT-116, Calcein AM, 72 h; read-out: IC50
From the text: as §1

[4] = tested on: HCT-116 cells; assay: Cell Titer-Glo cytotoxicity assay, HCT-116; type: cell-based; conditions: Homo sapiens; HCT-116, Cell Titer-Glo, 72 h; read-out: IC50
From the text: as §1

[5] = tested on: Hep3B cells; assay: Calcein AM cytotoxicity assay, Hep3B; type: cell-based; conditions: Homo sapiens, Calcein AM, 72 h, read-out: IC50
From the text: as §1

[6] = tested on: Hep3B cells; assay: Cell Titer-Glo cytotoxicity assay, Hep3B; type: cell-based; conditions: Homo sapiens, Cell Titer-Glo, 72 h, read-out: IC50
From the text: as §1

[7] = tested on: SF-268 cells; assay: Calcein AM cytotoxicity assay, SF-268; type: cell-based; conditions: Homo sapiens; SF-268, Calcein AM, 72 h; read-out: IC50
From the text: as §1

[8] = tested on: SF-268 cells; assay: Cell Titer-Glo cytotoxicity assay, SF-268; type: cell-based; conditions: Homo sapiens; SF-268, Cell Titer-Glo, 72 h; read-out: IC50
From the text: as §1

[9] = tested on: SK-OV-3 cells; assay: Calcein AM cytotoxicity assay, SK-OV-3; type: cell-based; conditions: Homo sapiens; SK-OV-3, Calcein AM, 72 h; read-out: IC50
From the text: as §1

[10] = tested on: SK-OV-3 cells; assay: Cell Titer-Glo cytotoxicity assay, SK-OV-3; type: cell-based; conditions: Homo sapiens; SK-OV-3, Cell Titer-Glo, 72 h; read-out: IC50
From the text: as §1

[11] = tested on: NCI/ADR RES cells; assay: Calcein AM cytotoxicity assay, NCI/ADR-RES; type: cell-based; conditions: Homo sapiens, Calcein AM, 72 h, read-out: IC50
From the text: as §1

[12] = tested on: NCI/ADR RES cells; assay: Cell Titer-Glo cytotoxicity assay, NCI/ADR-RES; type: cell-based, human; conditions: Homo sapiens; NCI/ADR-RES, Cell Titer-Glo, 72 h; read-out: IC50
From the text: as §1

[13] = tested on: NCI-H460 cells; assay: Calcein AM cytotoxicity assay, NCI-H460; type: cell-based; conditions: Homo sapiens; NCI-H460, Calcein AM, 72 h; read-out: IC50
From the text: as §1

[14] = tested on: NCI-H460 cells; assay: Cell Titer-Glo cytotoxicity assay, NCI-H460; type: cell-based, human; conditions: Homo sapiens; NCI-H460, Cell Titer-Glo, 72 h; read-out: IC50
From the text: as §1

[15] = tested on: MCF7 cells; assay: Calcein AM cytotoxicity assay, MCF7; type: cell-based; conditions: Homo sapiens; MCF7, Calcein AM, 72 h; read-out: IC50
From the text: as §1

[16] = tested on: MCF7 cells; assay: Cell Titer-Glo cytotoxicity assay, MCF7; type: cell-based, human; conditions: Homo sapiens; MCF7, Cell Titer-Glo, 72 h; read-out: IC50
From the text: as §1

[17] = tested on: NmuMG mouse mammary normal epithelial cells; assay: Calcein AM cytotoxicity assay, NmuMG; type: cell-based; conditions: Epithelial cell, NmuMG, Calcein AM, 72 h, read-out: IC50
From the text: as §1

[18] = tested on: NmuMG mouse mammary normal epithelial cells; assay: Cell Titer-Glo cytotoxicity assay, NmuMG; type: cell-based; conditions: Mus musculus, Epithelial cell; NmuMG, Cell Titer-Glo, 72 h; read-out: IC50
From the text: as §1

[19] = tested on: HT-29 cells; assay: MTT cytotoxicity assay, HT-29; type: cell-based; conditions: Homo sapiens; HT-29, MTT, 24 h; read-out: IC50
[20] = tested on: human cancer cell lines; assay: Cytotoxicity across the panel of human cancer cell lines (average, high-throughput assays); type: cell-based; conditions: for IC50: read-out: Cancerous Average IC50 / Average IC50 in Cancer Cell Lines; for further fold increase in potency from multiple phenyl rings: average IC50 compared with single-ring 23 and 38
From the text: as §1

[21] = tested on: NmuMG Cell Line; assay: Cytotoxicity in NmuMG cell line, summary table (assay not stated); type: cell-based; conditions: Mus musculus, assay not stated (mostly Cell Titer-Glo values; Calcein AM values for 20, 24, 39)
From the text: as §1

[22] = average across eight human cancer cell lines, MTT (HT-29) values excluded

Compound	IC50 [1] [µM]	IC50 [2] [µM]	IC50 [3] [µM]	IC50 [4] [µM]	IC50 [5] [µM]	IC50 [6] [µM]	IC50 [7] [µM]	IC50 [8] [µM]	IC50 [9] [µM]	IC50 [10] [µM]	IC50 [11] [µM]	IC50 [12] [µM]	IC50 [13] [µM]	IC50 [14] [µM]	IC50 [15] [µM]	IC50 [16] [µM]	IC50 [17] [µM]	IC50 [18] [µM]	IC50 [19] [µM]	IC50 [20, 22] [µM]	other results
S=C=Nc1ccccc1 [Compound 19, 1-isothiocyanatobenzene]	> 50	> 50	> 20	> 20	> 50	> 20	2.32	> 50	> 50	> 50	> 20	> 20	> 50	> 20	> 50	> 50	> 200	> 200	> 50	>50.00	IC50 [21]: > 200 µM
S=C=NC1CC1 [Compound 17, isothiocyanatocyclopropane]	29.7	> 50	> 50	> 50	> 30	> 30	> 50	> 50	> 30	> 50	> 50	> 50	> 50	> 50	15.1	12.6	> 200	> 200	> 50	> 50	Cancerous Average IC50 / Average IC50 in Cancer Cell Lines [20, 22]: >50.00^c μM; IC50 [21]: > 200 µM
S=C=NCC(c1ccccc1)c1ccccc1 [Compound 40, 2-isothiocyanato-1,1-diphenylethane]	3.51	3.65	3.26	1.22	3.58	4.3	3.49	3.33	5.26	4.52	3.95	4.47	9.91	5.64	3.62	3.68	5.81	3.62	22.9	4.11	further fold increase in potency from multiple phenyl rings [20]: ~2 fold
S=C=NCc1cccc(-c2ccccc2)c1 [Compound 34, 1-(isothiocyanatomethyl)-3-phenylbenzene]	7.11	3.87	2.93	3.33	6.9	2.11	3.95	3.39	4.92	3.83	1.47	2.23	3.53	5.29	2.52	2.13	5.95	3.06	28.8	3.27	selectivity for cancer cells over NmuMG cells ([20]; IC50 in NmuMG versus average IC50 in cancer cell lines): non-selective; further fold increase in potency from multiple phenyl rings [20]: ~2 fold
CS(=O)(=O)CCCCN=C=S [Compound 14, 1-isothiocyanato-4-(methylsulfonyl)butane]	5.24	4	4.16	3.29	3.46	4.48	4.72	3.7	4.84	6.99	9.99	11.1	10	6.87	8.36	2.28	7.9	5.32	39.1	5.32	
S=C=NCc1ccccc1Br [Compound 25, 1-bromo-2-(isothiocyanatomethyl)benzene]	3.99	8.64	19.6	3.88	5.67	16.3	6	7.11	6.32	5.01	> 20	20.1	19.4	17.3	6.76	2.73	11.3	4.6	26.9	10.1	
COc1cc(OC)c(CN=C=S)c(OC)c1 [Compound 28, 2-(isothiocyanatomethyl)-1,3,5-trimethoxybenzene]	2.54	4.8	9.23	4.55	1.87	3.21	4.61	3.05	3.93	4.75	12	15.2	11.9	10.8	5.75	3.15	2.94	2.09	17	6.53	
S=C=NCCc1ccccc1 [Compound 38, 1-(2-isothiocyanatoethyl)benzene]	43.1	10.9	12.7	10.3	46.2	11.1	8.66	7.2	16.7	13.5	10.5	12.1	12.1	13.7	23.7	13.1	< 12.5	17.7	33.2	11.5	
